pIC50: −log10 of the molar value.

The subject of the first assay is phosphate uptake by rabbit intestinal Brush Border Membrane Vesicles (BBMV). Description: 33PO4 uptake in rabbit intestinal BBMV (HTS), phosphate transporter inhibition in vitro. It is filed as biochemical. As to conditions: Table 1, phosphate uptake, read-out: IC50. As for the experimental part:
The following example outlines the procedures required for in vitro measurement of the inhibition of phosphate uptake by rabbit intestinal Brush Border Membrane Vesicles (BBMV).
Rabbit Intestinal Brush Border Membrane Vesicles (BBMV) were isolated from mucosal scrapings of the upper small intestine (duodenum) of male New Zealand White rabbits. The scrapings were divided into 2 g aliquots in cryopreservation vials, frozen in liquid nitrogen, and stored at −80° C.
The following procedure was performed for each 2 g sample of BBMV mucosal scraping. Buffer volumes and container sizes were adjusted appropriately for the number of 2 g samples used. The entire preparation was performed on ice, unless otherwise stated.
Mucosal scrapings (2 g per tube) were thawed in a 37° C. water bath for 3 minutes and then placed on ice. The scrapings were suspended with a total of 7.5 ml of 300 MET, and transferred to a 250 mL Corning tube on ice. To the suspension was added 30 mL cold (4° C.) deionized water (dH20). The suspension was homogenized with a tissue homogenizer (Polytron) on high speed for 2 minutes. A stir bar and MgCl2 (81.3 mg) was added. The suspension was mixed well by inverting the closed tube. The suspension was stirred on ice, ensuring that a good vortex is achieved with the stir bar, for 40 minutes. The suspension was transferred to a chilled centrifuge tube and spun at 4000×g for 15 minutes. The supernatant was transferred to a new chilled centrifuge tube and spun at 32000×g for 30 minutes. The supernatant was discarded and the pellet was re-suspended with 34 mL cold 60 MET. The suspension was homogenized with a Dounce homogenizer with 8 strokes. The suspension was transferred to a fresh 250 mL Corning tube. A stir bar and 69.1 mg MgCl2 were added. The suspension was stirred well on ice for 10 minutes. The suspension was transferred to a chilled centrifuge tube and spun at 4000×g for 15 minutes. The supernatant was transferred to a new chilled centrifuge tube and spun at 32000×g for 30 minutes. The supernatant was discarded. At this stage, the preparation could be continued or this pellet (P4) could be frozen in liquid nitrogen and stored at −80° C. When needed, this pellet could be allowed to thaw at room temperature for 5 minutes. Continuing the preparation, the pellet was re-suspended with 34 mL cold 280 MH. The suspension was homogenized in a Dounce homogenize with 8 strokes. The suspension was transferred to a new chilled centrifuge tube and spun at 32000×g for 30 minutes. The supernatant was discarded. To the pellet was added 500 μL 280 MH and the pellet was re-suspended very carefully with a 1 mL tuberculin syringe with a 25-gauge needle with care not to create bubbles. Once the entire pellet was suspended, the suspension was transferred to a chilled 1.5 mL microfuge tube. The suspension was evenly dispersed by bringing the suspension up into the syringe through the 25-gauge needle, and back out again 8 times with care not to create bubbles. The total protein concentration was determined by performing a Bradford Protein Assay. Using that value, the BBMV were diluted with 280 MH to reach approximately 0.5-2.0 mg/mL. The solution was used as soon as possible for uptake studies.
The following experiment was performed using a Beckman Multimek 96-tip robotic pipettor. The following outlines the preparation required to screen one 96-well plate of compounds. However, multiple plates could be screened in one experiment.
To the “Uptake Buffers” was added ^33PO4 to reach 200,000 CPM/19 μL. The buffer solutions were stored at room temperature. The following control solutions were prepared and placed into appropriate wells of a polypropylene, 96-well V-bottom plate (“Hot Stock Plate”):
a. Maximum activity (MAX)−Na Uptake buffer+^33PO4 at 200,000 CPM/19 μL
b. Midline activity (MID)−MAX+100 μM KH2PO4, pH 7.4
c. Minimum activity (MIN)− K Uptake buffer+^33PO4 at 200,000 CPM/19 μL
As usually defined, the pIC50 is the negative decadic logarithm of the IC50, by convention in mol/L. As for `O=C(O)c1cc(Br)ccc1NS(=O)(=O)c1ccc(-c2ccccc2)cc1` [Compound 1], the pIC50 is greater than 4.30.
For `O=C(O)c1cc(Br)ccc1NS(=O)(=O)c1ccc(OC(F)(F)F)cc1` [Compound 2], the pIC50 is greater than 4.30.
For the compound `O=C(O)c1cc(Br)ccc1NS(=O)(=O)c1cc(C(F)(F)F)cc(C(F)(F)F)c1` [Compound 3], the pIC50 is 4.00 to 4.29.
Same read-out and setting: to `O=C(O)c1cc(Br)ccc1NS(=O)(=O)c1cc(Cl)c(Cl)cc1Cl` [Compound 4] belongs 4.00 to 4.29.
Same read-out and setting: to `O=C(O)c1cc(Br)ccc1NS(=O)(=O)c1ccc([N+](=O)[O-])cc1` [Compound 5] belongs 4.00 to 4.29; to `Cc1cc(C)c(S(=O)(=O)Nc2ccc(Br)cc2C(=O)O)c(C)c1` [Compound 6], 4.00 to 4.29.
Take `O=C(O)c1cc(Br)ccc1NS(=O)(=O)c1ccc(C(F)(F)F)cc1` [Compound 7]: the pIC50 is 4.00 to 4.29.
On to `O=C(O)c1cc(Br)ccc1NS(=O)(=O)c1ccc(-c2ccccc2)cc1` [Compound 8], for which the pIC50 was 4.00 to 4.29.
For the compound `Cc1ccc(S(=O)(=O)Nc2ccc(Br)cc2C(=O)O)cc1[N+](=O)[O-]` [Compound 9], the pIC50 is 4.00 to 4.29.
As to `O=C(O)c1cc(Br)ccc1NS(=O)(=O)c1cccc(Cl)c1` [Compound 10], the pIC50 was 3.30 to 4.00.
With `O=C(O)c1cc(Br)ccc1NS(=O)(=O)c1ccc(Oc2ccccc2)cc1` [Compound 11], the pIC50 is 3.30 to 4.00.
For `O=C(O)c1cc(Br)ccc1NS(=O)(=O)c1ccc(Cl)c([N+](=O)[O-])c1` [Compound 12], the pIC50 was 3.30 to 4.00.
Still for that read-out and setting: in the case of `O=C(O)c1cc(Br)ccc1NS(=O)(=O)c1cccc([N+](=O)[O-])c1` [Compound 13] it was 3.30 to 4.00; in that of `O=C(O)c1cc(Br)ccc1NS(=O)(=O)c1ccc(OC(F)(F)F)cc1` [Compound 14], 3.30 to 4.00; in that of `O=C(O)c1cc(Br)ccc1NS(=O)(=O)c1ccc(Cl)c([N+](=O)[O-])c1` [Compound 15], 3.30 to 4.00.
As to `O=C(O)c1cc(Br)ccc1NS(=O)(=O)c1cccc(C(F)(F)F)c1` [Compound 16], the pIC50 was 3.30 to 4.00.
Regarding `O=C(O)c1cc(Br)ccc1NS(=O)(=O)c1ccc(Br)cc1` [Compound 18], the pIC50 is 3.30 to 4.00.
Take `O=C(O)c1cc(Br)ccc1NS(=O)(=O)c1cccc2ccccc12` [Compound 19]: the pIC50 was 3.30 to 4.00.
For the compound `Cc1ccc(S(=O)(=O)Nc2ccc(Br)cc2C(=O)O)cc1[N+](=O)[O-]` [Compound 20], the pIC50 is 3.30 to 4.00.
On the same count and under the same terms, to `O=C(O)c1cc(Br)ccc1NS(=O)(=O)c1ccc(I)cc1` [Compound 24] belongs 3.30 to 4.00.
Regarding `O=C(O)c1cc(Br)ccc1NS(=O)(=O)c1ccccc1F` [Compound 25], the pIC50 is 3.30 to 4.00.
On to `O=C(O)c1cc(Br)ccc1NS(=O)(=O)c1ccccc1C(F)(F)F` [Compound 26], for which the negative logarithm of the IC50 (pIC50) was 3.30 to 4.00.
Still for that read-out and setting: in the case of `O=C(O)c1cc(Br)ccc1NS(=O)(=O)c1ccc(Cl)cc1` [Compound 27] it was 3.30 to 4.00.
As to `CCCCCc1ccc(S(=O)(=O)Nc2ccc(Br)cc2C(=O)O)cc1` [Compound 28], the pIC50 was 3.30 to 4.00.
As to `O=C(O)c1cc(Br)ccc1NS(=O)(=O)c1ccc(Cl)cc1` [Compound 29], the pIC50 was 3.30 to 4.00.
Take `C=Cc1ccc(S(=O)(=O)Nc2ccc(Br)cc2C(=O)O)cc1` [Compound 30]: the pIC50 was 3.30 to 4.00.
Turning to `O=C(O)c1cc(Br)ccc1NS(=O)(=O)c1ccccc1Cl` [Compound 31], the pIC50 is 3.30 to 4.00.
Consider `O=C(O)c1cc(Br)ccc1NS(=O)(=O)c1ccc([N+](=O)[O-])cc1` [Compound 33], for which the pIC50 is 3.30 to 4.00.
Turning to `O=C(O)c1cc(Br)ccc1NS(=O)(=O)c1cccc(F)c1` [Compound 34], the pIC50 is 3.30 to 4.00.
Consider `COc1ccc(OC)c(S(=O)(=O)Nc2ccc(Br)cc2C(=O)O)c1` [Compound 35], for which the pIC50 is 3.30 to 4.00.
As for `COc1ccc(S(=O)(=O)Nc2ccc(Br)cc2C(=O)O)cc1` [Compound 37], the pIC50 is 3.00 to 3.30.
With `O=C(O)c1cc(Br)ccc1NS(=O)(=O)c1ccccc1[N+](=O)[O-]` [Compound 38], the pIC50 is 2.82 to 3.00.
Take `O=C(O)c1cc(Br)ccc1NS(=O)(=O)c1ccc(Cl)cc1` [Compound 39]: the pIC50 is less than 2.82.
Turning to `O=C(O)c1cc(Br)ccc1NS(=O)(=O)c1ccc(Cl)c([N+](=O)[O-])c1` [Compound 40], the pIC50 is less than 2.82.
For `O=C(O)c1cc(Br)ccc1NS(=O)(=O)c1ccc(OC(F)(F)F)cc1` [Compound 41], the negative-log IC50 (pIC50) is less than 2.82.
With `COc1ccc(S(=O)(=O)Nc2ccc(Br)cc2C(=O)O)cc1[N+](=O)[O-]` [Compound 42], the pIC50 was less than 2.82.
Turning to `O=C(O)c1cc(Br)ccc1NS(=O)(=O)c1ccc(Cl)cc1` [Compound 43], the pIC50 was less than 2.82.
The same measure, in the same setting: to `O=C(O)c1cc(Br)ccc1NS(=O)(=O)c1ccc(O)c([N+](=O)[O-])c1` [Compound 44] belongs less than 2.82; to `O=C(O)c1cc(Br)ccc1NS(=O)(=O)c1ccc(Cl)cc1` [Compound 46], less than 2.82; to `O=C(O)c1ccc(S(=O)(=O)Nc2ccc(Br)cc2C(=O)O)cc1` [Compound 47], less than 2.82.
With `O=C(O)c1cc(Br)ccc1NS(=O)(=O)c1ccccc1[N+](=O)[O-]` [Compound 48], the pIC50 was less than 2.82.

The assay is the same for the next values; noted with them: Table 2, phosphate uptake, read-out: IC50.
As to `O=C(Nc1ccccc1Cl)c1cc(Br)ccc1NS(=O)(=O)c1ccc(OC(F)(F)F)cc1` [Compound 50], the pIC50 was greater than 4.30.
As to `O=C(Nc1ccc(Br)cc1)c1cc(Br)ccc1NS(=O)(=O)c1ccc(OC(F)(F)F)cc1` [Compound 51], the pIC50 was greater than 4.30.
In the case of `O=C(NCc1ccc(F)cc1)c1cc(Br)ccc1NS(=O)(=O)c1ccc(OC(F)(F)F)cc1` [Compound 52], the pIC50 is greater than 4.30.
With `O=C(NCc1ccc(Cl)cc1)c1cc(Br)ccc1NS(=O)(=O)c1ccc(OC(F)(F)F)cc1` [Compound 53], the pIC50 was greater than 4.30.
`COc1cccc(CNC(=O)c2cc(Br)ccc2NS(=O)(=O)c2ccc(OC(F)(F)F)cc2)c1` [Compound 54]: the pIC50 was greater than 4.30.
For the compound `O=C(NCc1ccccc1C(F)(F)F)c1cc(Br)ccc1NS(=O)(=O)c1ccc(OC(F)(F)F)cc1` [Compound 55], the pIC50 is greater than 4.30.
On the same count and under the same terms, to `COc1ccc(NC(=O)c2cc(Br)ccc2NS(=O)(=O)c2ccc(OC(F)(F)F)cc2)cc1` [Compound 56] belongs 4.00 to 4.29.
Take `Cc1ccc(NC(=O)c2cc(Br)ccc2NS(=O)(=O)c2ccc(OC(F)(F)F)cc2)cc1` [Compound 57]: the pIC50 is 4.00 to 4.29.
Same read-out and setting: to `Cc1cccc(CNC(=O)c2cc(Br)ccc2NS(=O)(=O)c2ccc(OC(F)(F)F)cc2)c1` [Compound 58] belongs 4.00 to 4.29; to `O=C(Nc1ccc(Cl)c(Cl)c1)c1cc(Br)ccc1NS(=O)(=O)c1ccc(OC(F)(F)F)cc1` [Compound 59], 4.00 to 4.29; to `O=C(NCc1ccc(OC(F)(F)F)cc1)c1cc(Br)ccc1NS(=O)(=O)c1ccc(OC(F)(F)F)cc1` [Compound 60], 4.00 to 4.29.
On the same count and under the same terms, in the case of `O=C(NCc1ccccc1OC(F)(F)F)c1cc(Br)ccc1NS(=O)(=O)c1ccc(OC(F)(F)F)cc1` [Compound 61] it was 4.00 to 4.29; in that of `O=C(Nc1ccccc1Br)c1cc(Br)ccc1NS(=O)(=O)c1ccc(OC(F)(F)F)cc1` [Compound 62], 4.00 to 4.29.
`O=C(NCc1ccc(Cl)c(Cl)c1)c1cc(Br)ccc1NS(=O)(=O)c1ccc(OC(F)(F)F)cc1` [Compound 63]: the pIC50 is 4.00 to 4.29.
As for `O=C(NCc1ccc(F)cc1F)c1cc(Br)ccc1NS(=O)(=O)c1ccc(OC(F)(F)F)cc1` [Compound 64], the pIC50 is 4.00 to 4.29.
Regarding `CSc1ccc(NC(=O)c2cc(Br)ccc2NS(=O)(=O)c2ccc(OC(F)(F)F)cc2)cc1` [Compound 65], the pIC50 is 4.00 to 4.29.

These data come from US20070021509A1, “Phosphate transport inhibitors” (priority 2001, published 2007).
